Measurements published in patent US8933018B2, “Boron containing polybasic bacterial efflux pump inhibitors and therapeutic uses thereof” (priority 2011, dated 2015).

Tested on: P. aeruginosa, PAM1723, overexpressing the MexAB-OprM efflux pump
Format: cell-based, Pseudomonas aeruginosa
Conditions: lowest EPI concentration giving antibacterial activity with levofloxacin at 1/8 of its MIC, MHB, 20 h at 35° C.
Method: All EPI compounds were readily soluble in water and stock solutions were prepared at a final concentration of 10 mg/ml. Stock solutions were further diluted, according to the needs of the particular assay, in Mueller Hinton Broth (MHB). Stock solution was stored at […].
The checkerboard assay was performed in microtiter plates. […] EPIs were diluted in the y-axis, each row containing a single concentration of an EPI. […] The assay was performed in MHB with a final bacterial inoculum of 5 times 10^5 CFU/ml (from an early-log phase culture). Microtiter plates were incubated during 20 h at 35° C. and were read using a microtiter plate reader (Molecular Devices) at 650 nm as well as visual observation using a microtiter plate-reading mirror.

CC1(C)OB(O)c2cc(NC(=O)[C@@H](CCc3ccc(C(F)(F)F)cc3)NC(=O)[C@@H](N)CCC(=O)N3C[C@@H](N)C[C@H]3CN)ccc21 [Compound 41, (S)-2-amino-5-((2S,4S)-4-amino-2-(aminomethyl)pyrrolidin-1-yl)-N-((R)-1-(1-hydroxy-3,3-dimethyl-1,3-dihydrobenzo[c][1,2]oxaborol-6-ylamino)-1-oxo-4-(4-(trifluoromethyl)phenyl)butan-2-yl)-5-oxopentanamide]
MPC8 (Minimum Potentiating Concentration): B (B = MPC8 of 2.5 μg/ml to less than 10 μg/mL.)

CC1(C)OB(O)c2cc(NC(=O)[C@@H](CCc3ccc(C(F)(F)F)cc3)NC(=O)[C@@H](N)CCC(=O)N3C4CCC3[C@H](CN)[C@@H]4CN)ccc21 [Compound 42, (2S)-2-amino-5-((2R,3S)-2,3-bis(aminomethyl)-7-azabicyclo[2.2.1]heptan-7-yl)-N-((R)-1-(1-hydroxy-3,3-dimethyl-1,3-dihydrobenzo[c][1,2]oxaborol-6-ylamino)-1-oxo-4-(4-(trifluoromethyl)phenyl)butan-2-yl)-5-oxopentanamide]
MPC8 (Minimum Potentiating Concentration): A (A = MPC8 of less than 2.5 μg/mL.)

NCCN(CCN)C(=O)CC[C@H](N)C(=O)N[C@H](Cc1ccc(C(F)(F)F)cc1)C(=O)Nc1cnc2ccc(B(O)O)cc2c1 [Compound 43, 3-((R)-2-((S)-2-amino-5-(bis(2-aminoethyl)amino)-5-oxopentanamido)-3-(4-(trifluoromethyl)phenyl)propanamido)quinolin-6-ylboronic acid]
MPC8 (Minimum Potentiating Concentration): B (B = MPC8 of 2.5 μg/ml to less than 10 μg/mL.)

NCCN(CCN)C(=O)CC[C@H](N)C(=O)N[C@H](CCc1ccc(C(F)(F)F)cc1)C(=O)Nc1cnc2ccc(B(O)O)cc2c1 [Compound 44, 3-((R)-2-((S)-2-amino-5-(bis(2-aminoethyl)amino)-5-oxopentanamido)-4-(4-(trifluoromethyl)phenyl)butanamido)quinolin-6-ylboronic acid]
MPC8 (Minimum Potentiating Concentration): A (A = MPC8 of less than 2.5 μg/mL.)

N[C@@H]1C[C@H](N)C[C@H](NC(=O)CC[C@H](N)C(=O)N[C@H](CCc2ccc(C(F)(F)F)cc2)C(=O)Nc2ccc3c(c2)B(O)OC3)C1 [Compound 66, (S)-2-amino-N^5-((1s,3R,5S)-3,5-diaminocyclohexyl)-N^1-((R)-1-(1-hydroxy-1,3-dihydrobenzo[c][1,2]oxaborol-6-ylamino)-1-oxo-4-(4-(trifluoromethyl)phenyl)butan-2-yl)pentanediamide]
MPC8 (Minimum Potentiating Concentration): B (B = MPC8 of 2.5 μg/ml to less than 10 μg/mL.)

CC1(C)OB(O)c2cc(NC(=O)[C@@H](Cc3ccc(C(F)(F)F)cc3)NC(=O)[C@@H](N)CCC(=O)N3C[C@H](N)C[C@H](N)C3)ccc21 [Compound 67, (S)-2-amino-5-((3R,5S)-3,5-diaminopiperidin-1-yl)-N-((R)-1-(1-hydroxy-3,3-dimethyl-1,3-dihydrobenzo[c][1,2]oxaborol-6-ylamino)-1-oxo-3-(4-(trifluoromethyl)phenyl)propan-2-yl)-5-oxopentanamide]
MPC8 (Minimum Potentiating Concentration): B (B = MPC8 of 2.5 μg/ml to less than 10 μg/mL.)

CC1(C)OB(O)c2cc(NC(=O)[C@@H](Cc3ccc(C(F)(F)F)cc3)NC(=O)[C@@H](N)CCC(=O)N3C[C@@H](N)C[C@H](N)C3)ccc21 [Compound 74, (S)-2-amino-5-((3S,5S)-3,5-diaminopiperidin-1-yl)-N-((R)-1-(1-hydroxy-3,3-dimethyl-1,3-dihydrobenzo[c][1,2]oxaborol-6-ylamino)-1-oxo-3-(4-(trifluoromethyl)phenyl)propan-2-yl)-5-oxopentanamide]
MPC8 (Minimum Potentiating Concentration): B (B = MPC8 of 2.5 μg/ml to less than 10 μg/mL.)

CC1(C)OB(O)c2cc(NC(=O)[C@@H](Cc3ccc(C(F)(F)F)cc3)NC(=O)[C@@H](N)CCC(=O)N3C[C@@H](N)C[C@H]3CN)ccc21 [Compound 75, (S)-2-amino-5-((2S,4S)-4-amino-2-(aminomethyl)pyrrolidin-1-yl)-N-((R)-1-(1-hydroxy-3,3-dimethyl-1,3-dihydrobenzo[c][1,2]oxaborol-6-ylamino)-1-oxo-3-(4-(trifluoromethyl)phenyl)propan-2-yl)-5-oxopentanamide]
MPC8 (Minimum Potentiating Concentration): B (B = MPC8 of 2.5 μg/ml to less than 10 μg/mL.)

CC(C)c1ccc(C[C@@H](NC(=O)[C@@H](N)CCC(=O)N(CCN)CCN)C(=O)Nc2ccc3c(c2)B(O)OC3(C)C)cc1 [Compound 78, (S)-2-amino-N5,N5-bis(2-aminoethyl)-N^1-((R)-1-(1-hydroxy-3,3-dimethyl-1,3-dihydrobenzo[c][1,2]oxaborol-6-ylamino)-3-(4-isopropylphenyl)-1-oxopropan-2-yl)pentanediamide]
MPC8 (Minimum Potentiating Concentration): A (A = MPC8 of less than 2.5 μg/mL.)

CC1(C)OB(O)c2ccc(NC(=O)[C@@H](Cc3ccc(C(F)(F)F)cc3)NC(=O)[C@@H](N)CCC(=O)N(CCN)CCN)cc21 [Compound 84, (S)-2-amino-N^5,N^5-bis(2-aminoethyl)-N^1-((R)-1-(1-hydroxy-3,3-dimethyl-1,3-dihydrobenzo[c][1,2]oxaborol-5-ylamino)-1-oxo-3-(4-(trifluoromethyl)phenyl)propan-2-yl)pentanediamide]
MPC8 (Minimum Potentiating Concentration): B (B = MPC8 of 2.5 μg/ml to less than 10 μg/mL.)

CC1(C)OB(O)c2ccc(CNC(=O)[C@@H](Cc3ccc(C(F)(F)F)cc3)NC(=O)[C@@H](N)CCC(=O)N(CCN)CCN)cc21 [Compound 90, (S)-2-amino-N^5,N^5-bis(2-aminoethyl)-N^1-((R)-1-((1-hydroxy-3,3-dimethyl-1,3-dihydrobenzo[c][1,2]oxaborol-5-yl)methylamino)-1-oxo-3-(4-(trifluoromethyl)phenyl)propan-2-yl)pentanediamide]
MPC8 (Minimum Potentiating Concentration): B (B = MPC8 of 2.5 μg/ml to less than 10 μg/mL.)

CC1(C)OB(O)c2ccc(CNC(=O)[C@@H](CCc3ccc(C(F)(F)F)cc3)NC(=O)[C@@H](N)CCC(=O)N(CCN)CCN)cc21 [Compound 93, (S)-2-amino-N^5,N^5-bis(2-aminoethyl)-N^1-((R)-1-((1-hydroxy-3,3-dimethyl-1,3-dihydrobenzo[c][1,2]oxaborol-5-yl)methylamino)-1-oxo-4-(4-(trifluoromethyl)phenyl)butan-2-yl)pentanediamide]
MPC8 (Minimum Potentiating Concentration): B (B = MPC8 of 2.5 μg/ml to less than 10 μg/mL.)

CC1(C)OB(O)c2ccc(NC(=O)[C@@H](CCc3ccc(C(F)(F)F)cc3)NC(=O)[C@@H](N)CCC(=O)N(CCN)CCN)cc21 [Compound 94, (S)-2-amino-N^5,N^5-bis(2-aminoethyl)-N^1-((R)-1-(1-hydroxy-3,3-dimethyl-1,3-dihydrobenzo[c][1,2]oxaborol-5-ylamino)-1-oxo-4-(4-(trifluoromethyl)phenyl)butan-2-yl)pentanediamide]
MPC8 (Minimum Potentiating Concentration): A (A = MPC8 of less than 2.5 μg/mL.)

CC1(C)OB(O)c2ccc(NC(=O)[C@@H](Cc3ccc(C(F)(F)F)cc3)NC(=O)[C@@H](N)CCC(=O)NC(CN)CN)cc21 [Compound 95, (S)-2-amino-N^5-(1,3-diaminopropan-2-yl)-N^1-((R)-1-(1-hydroxy-3,3-dimethyl-1,3-dihydrobenzo[c][1,2]oxaborol-5-ylamino)-1-oxo-3-(4-(trifluoromethyl)phenyl)propan-2-yl)pentanediamide]
MPC8 (Minimum Potentiating Concentration): B (B = MPC8 of 2.5 μg/ml to less than 10 μg/mL.)

CC1(C)OB(O)c2ccc(NC(=O)[C@@H](CCc3ccc(C(F)(F)F)cc3)NC(=O)[C@@H](N)CCC(=O)NC(CN)CN)cc21 [Compound 96, (S)-2-amino-N^5-(1,3-diaminopropan-2-yl)-N^1-((R)-1-(1-hydroxy-3,3-dimethyl-1,3-dihydrobenzo[c][1,2]oxaborol-5-ylamino)-1-oxo-4-(4-(trifluoromethyl)phenyl)butan-2-yl)pentanediamide]
MPC8 (Minimum Potentiating Concentration): A (A = MPC8 of less than 2.5 μg/mL.)

CC1(C)OB(O)c2ccc(NC(=O)[C@@H](COc3ccc(C(F)(F)F)cc3)NC(=O)[C@@H](N)CCC(=O)NC(CN)CN)cc21 [Compound 97, (S)-2-amino-N^5-(1,3-diaminopropan-2-yl)-N^1-((R)-1-(1-hydroxy-3,3-dimethyl-1,3-dihydrobenzo[c][1,2]oxaborol-5-ylamino)-1-oxo-3-(4-(trifluoromethyl)phenoxy)propan-2-yl)pentanediamide]
MPC8 (Minimum Potentiating Concentration): B (B = MPC8 of 2.5 μg/ml to less than 10 μg/mL.)

CC1(C)OB(O)c2ccc(NC(=O)[C@@H](CSc3ccc(C(F)(F)F)cc3)NC(=O)[C@@H](N)CCC(=O)NC(CN)CN)cc21 [Compound 98, (S)-2-amino-N^5-(1,3-diaminopropan-2-yl)-N^1-((S)-1-(1-hydroxy-3,3-dimethyl-1,3-dihydrobenzo[c][1,2]oxaborol-5-ylamino)-1-oxo-3-(4-(trifluoromethyl)phenylthio)propan-2-yl)pentanediamide]
MPC8 (Minimum Potentiating Concentration): B (B = MPC8 of 2.5 μg/ml to less than 10 μg/mL.)

CC1(C)OB(O)c2c(NC(=O)[C@@H](Cc3ccc(C(F)(F)F)cc3)NC(=O)[C@@H](N)CCC(=O)N(CCN)CCN)cccc21 [Compound 101, (S)-2-amino-N^5,N^5-bis(2-aminoethyl)-N^1-((R)-1-(1-hydroxy-3,3-dimethyl-1,3-dihydrobenzo[c][1,2]oxaborol-7-ylamino)-1-oxo-3-(4-(trifluoromethyl)phenyl)propan-2-yl)pentanediamide]
MPC8 (Minimum Potentiating Concentration): B (B = MPC8 of 2.5 μg/ml to less than 10 μg/mL.)

CC1(C)OB(O)c2c(NC(=O)[C@@H](CCc3ccc(C(F)(F)F)cc3)NC(=O)[C@@H](N)CCC(=O)N(CCN)CCN)cccc21 [Compound 102, (S)-2-amino-N^5,N^5-bis(2-aminoethyl)-N^1-((R)-1-(1-hydroxy-3,3-dimethyl-1,3-dihydrobenzo[c][1,2]oxaborol-7-ylamino)-1-oxo-4-(4-(trifluoromethyl)phenyl)butan-2-yl)pentanediamide]
MPC8 (Minimum Potentiating Concentration): B (B = MPC8 of 2.5 μg/ml to less than 10 μg/mL.)
